What is called IC50 is the concentration at which inhibition is half-maximal.

Here are results for 37 compounds from patent publication US11186577B2, “Vasopressin receptor antagonists and products and methods related thereto” (BlackThorn Therapeutics, Inc., priority 2017, dated 2021).

The target in test [1] is human Arginine Vasopressin Receptor 1b (AVPR1b) (Homo sapiens (Human), UniProt P47901). The test can be described thus: Vasopressin V1B receptor antagonist assay (AVP-evoked calcium, FLIPR, CHO-AVPR1b cells). It counts as cell-based. The procedure: The purpose of the assay is to determine the inhibitory effect of synthesized compounds on the Vasopressin V1b receptor. The assay was performed in Chinese Hamster Ovary (CHO) cells expressing the human Arginine Vasopressin Receptor 1b (AVPR1b). Arginine Vasopressin (AVP) evokes an increase in intracellular calcium in CHO-AVPR1b cells which is measured in a fluorescence assay on the FLIPR^TETRA using calcium sensitive dyes. Test compounds were assessed for their ability to affect the magnitude of the response to AVP, with antagonists showing a concentration-dependent reduction in the AVP-mediated fluorescence.
CHO-AVPR1b cells were maintained in routine culture in T175 Flasks at 37° C., 5% CO2. The growth medium consisted of Ham's F12 media supplemented with 10% v/v fetal bovine serum, 1× non-essential amino acids, and 0.4 mg/ml Geneticin G418.
Cells were harvested from T175 flasks when they were 80-90% confluent by first washing the cell monolayer with PBS and then dissociated using trypsin 0.05%/EDTA (3 mL for a T175 Flask). The flasks were incubated at room temperature until the cells detached. To the cell suspension, 10 ml of growth media was added and the cell density determined using the Vi-Cell automated cell counter. The cells were spun at 1000 rpm for 3 minutes, then the supernatant was carefully removed and discarded. The cell pellet was re-suspended at 6.0e^5 cells/ml in growth media. 25 μL of cells in growth media was dispensed into each well (15,000 cells per well) of a poly-D-lysine coated black, clear bottomed, 384-well plate. The plates were incubated at 37° C., 5% CO2 overnight.
At the start of each assay day, the potency of AVP is assessed and an EC80 concentration determined for subsequent compound profiling. Assays were performed using a two-step addition protocol on the FLIPR^TETRA; first addition of 5 μl of control or test compound at 10× final in assay buffer with 15 min incubation at 37° C., 5% CO2 followed by 10 μl of AVP at 6× final concentration in assay buffer. Changes in fluorescence were monitored for 3 min after both additions on the FLIPR^TETRA using 470-495 nm excitation and 515-575 nm emission wavelengths. The assay buffer consisted of HBSS (+Ca/+Mg) supplemented with 20 mM HEPES, and for the preparation of the AVP agonist only, 0.1% w/v bovine serum albumin. The assay was initiated by the removal of growth media from the cells and replacement with 45 μl of Calcium-6 dye (Molecular Devices) prepared at 1× in assay buffer. Cells were loaded with dye for 60-90 min at 37° C., 5% CO2 before initiation of the FLIPR^TETRA protocol. […] For compound profiling, test compounds were first serially diluted in DMSO (10-point curve, 1:3 dilutions) then diluted 33.3-fold in assay buffer prior to addition to the dye loaded cells on the FLIPR^TETRA. At the end of the incubation period 10 μl of AVP in assay buffer containing 0.1% BSA was added at the previously determined EC80 concentration.
In-plate controls for the assay include a Nelivaptan concentration-response curve as the reference V1b antagonist and an AVP concentration-response curve to confirm the reproducibility of the EC80 used for the compound challenge.

Test [2] deals with human Arginine Vasopressin Receptor 1a (AVPR1a) (Homo sapiens (Human), UniProt P37288). The test can be described thus: Vasopressin V1A receptor antagonist assay (AVP-evoked calcium, FLIPR, CHO-AVPR1a cells). It counts as cell-based. The essentials: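 CHO cells expressing human AVPR1a, Calcium-6 dye loaded 60-90 min, preincubated with compound 15 min at 37° C., then challenged with AVP at its daily-determined EC80. FLIPR fluorescence; 10-point 1:3 series from 3 μM, duplicates.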

Molecules are shown by their SMILES. Like-named read-outs stand apart in the source and are kept apart here.

human Arginine Vasopressin Receptor 1b (AVPR1b), sequence (P47901 whole entry): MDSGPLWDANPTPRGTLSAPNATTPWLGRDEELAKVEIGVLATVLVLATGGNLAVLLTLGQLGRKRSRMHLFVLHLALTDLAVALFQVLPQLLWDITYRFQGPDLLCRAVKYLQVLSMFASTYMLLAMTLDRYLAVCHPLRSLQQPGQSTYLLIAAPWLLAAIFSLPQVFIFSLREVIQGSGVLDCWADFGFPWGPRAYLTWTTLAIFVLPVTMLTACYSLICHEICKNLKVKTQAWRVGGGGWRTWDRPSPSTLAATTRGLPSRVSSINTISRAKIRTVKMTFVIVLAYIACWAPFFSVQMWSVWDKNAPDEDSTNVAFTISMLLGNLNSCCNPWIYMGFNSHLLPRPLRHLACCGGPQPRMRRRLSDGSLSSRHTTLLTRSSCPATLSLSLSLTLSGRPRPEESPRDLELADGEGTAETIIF
human Arginine Vasopressin Receptor 1a (AVPR1a), sequence (P37288 whole entry): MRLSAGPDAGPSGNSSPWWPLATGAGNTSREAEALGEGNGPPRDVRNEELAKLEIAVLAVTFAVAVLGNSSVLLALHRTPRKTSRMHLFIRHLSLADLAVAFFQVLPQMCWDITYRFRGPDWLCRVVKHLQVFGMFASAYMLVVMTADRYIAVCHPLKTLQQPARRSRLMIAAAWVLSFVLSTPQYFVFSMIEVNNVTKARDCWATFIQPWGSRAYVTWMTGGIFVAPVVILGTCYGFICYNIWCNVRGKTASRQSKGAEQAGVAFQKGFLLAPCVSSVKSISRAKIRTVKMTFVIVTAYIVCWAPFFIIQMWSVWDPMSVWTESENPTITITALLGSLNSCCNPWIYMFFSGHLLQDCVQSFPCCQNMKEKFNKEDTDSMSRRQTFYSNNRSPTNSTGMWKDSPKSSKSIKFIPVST

For `CC(C)C(=O)N1Cc2cc(Cl)ccc2-n2c(nnc2C2CC3(C2)CN(c2ccccn2)C3)C1` [compound 71], the results for the IC50 in test [1] and in test [2] (read-out: V1a IC50) were over 1000 nM and under 100 nM, respectively.
On the same counts, the results for `COC(=O)N1Cc2cc(Cl)ccc2-n2c(nnc2C2CC3(C2)CN(c2ccccn2)C3)C1` [compound 70] are over 1000 nM and under 100 nM.
As to `COC(=O)N1Cc2cc(Cl)ccc2-n2c(C3CC4(C3)CN(c3ncc(F)cn3)C4)nnc2C1C` (single isomer, unassigned) [Cpd 170A], the IC50 was over 1000 nM in test [1] and under 100 nM in test [2] (read-out: V1a IC50).
The like results for `CC(C)OC(=O)N1Cc2cc(Cl)ccc2-n2c(C3CC4(C3)CN(c3ccc(F)cn3)C4)nnc2C1C` (single isomer, unassigned) [Cpd 163A] were, in that order, over 1000 nM and under 100 nM.
On the same counts, the results for `CC1c2nnc(C3CC4(C3)CN(c3ncccn3)C4)n2-c2ccc(Cl)cc2CN1C(=O)OC1CC1` (centres unmarked) [compound 171] are over 1000 nM and under 100 nM.
The like results for `CCN1Cc2cc(Cl)ccc2-n2c(nnc2C2CC3(C2)CN(c2ccccn2)C3)C1` [compound 45] were, in that order, over 1000 nM and under 100 nM.
For the compound `CC(C)N1Cc2cc(Cl)ccc2-n2c(nnc2C2CC3(C2)CN(c2cnccn2)C3)C1` [compound 47], the figures for the IC50 in test [1] and in test [2] (read-out: V1a IC50) were over 1000 nM and under 100 nM, respectively.
The like results for `COC(=O)N1Cc2cc(Cl)ccc2-n2c(C3CC4(C3)CN(c3ccc(F)cn3)C4)nnc2C1C` (single isomer, unassigned) [142A] were, in that order, over 1000 nM and under 100 nM.
On the same counts, the results for `CN1Cc2cc(Cl)ccc2-n2c(nnc2C2CC3(C2)CN(c2ccc(F)cn2)C3)C1` [compound 1, 8-chloro-1-(2-(5-fluoropyridin-2-yl)-2-azaspiro[3.3]heptan-6-yl)-5-methyl-5,6-dihydro-4H-benzo[f][1,2,4]triazolo[4,3-a][1,4]diazepine] are over 1000 nM and under 100 nM.
The like results for `O=C(N1Cc2cc(Cl)ccc2-n2c(nnc2C2CC3(C2)CN(c2cnccn2)C3)C1)C1(F)CC1` [compound 81] were, in that order, over 1000 nM and under 100 nM.
In the case of `CC1c2nnc(C3CC4(C3)CN(c3ncccn3)C4)n2-c2ccc(Cl)cc2CN1C(=O)OC(CF)CF` (single isomer, unassigned) [Cpd 202A], the concentration for half-maximal inhibition (IC50) in test [1] was over 1000 nM; in test [2] (read-out: V1a IC50), under 100 nM.
The like results for `CC(C)N1Cc2cc(Cl)ccc2-n2c(nnc2C2CC3(C2)CN(c2ccccn2)C3)C1` [compound 48] were, in that order, over 1000 nM and under 100 nM.
On the same counts, the results for `CCC(=O)N1Cc2cc(Cl)ccc2-n2c(nnc2C2CC3(C2)CN(c2ccccn2)C3)C1` [compound 67] are over 1000 nM and under 100 nM.
The like results for `O=C(OC(CF)CF)N1Cc2cc(Cl)ccc2-n2c(nnc2C2CC3(C2)CN(c2ccc(F)cn2)C3)C1` [compound 79] were, in that order, over 1000 nM and under 100 nM.
In the case of `CN1Cc2cc(Cl)ccc2-n2c(nnc2C2CC3(C2)CN(c2ccccn2)C3)C1` [compound 2], the IC50 in test [1] is over 1000 nM; in test [2] (read-out: V1a IC50), under 100 nM.
`COC(=O)N1Cc2cc(Cl)ccc2-n2c(C3CC4(C3)CN(c3cccc(C)n3)C4)nnc2C1C` (centres unmarked) [compound 180]: the values for the IC50 in test [1] and in test [2] (read-out: V1a IC50) were over 1000 nM and under 100 nM, respectively.
On the same counts, the results for `CC(C)N1Cc2cc(Cl)ccc2-n2c(nnc2C2CC3(C2)CN(c2ncccc2F)C3)C1` [compound 54] are over 1000 nM and under 100 nM.
On the same counts, the results for `CCN1Cc2cc(Cl)ccc2-n2c(nnc2C2CC3(C2)CN(c2ccc(F)cn2)C3)C1` [compound 49] are over 1000 nM and under 100 nM.
Turning to `COC(=O)N1Cc2cc(Cl)ccc2-n2c(C3CC4(C3)CN(c3ncc(F)cn3)C4)nnc2C1C` (centres unmarked) [compound 170], the IC50 is over 1000 nM in test [1] and under 100 nM in test [2] (read-out: V1a IC50).
In the case of `CC(=O)N1Cc2cc(Cl)ccc2-n2c(nnc2C2CC3(C2)CN(c2ccc(F)cn2)C3)C1` [compound 64], the IC50 was over 1000 nM in test [1] and under 100 nM in test [2] (read-out: V1a IC50).
On the same counts, the results for `COC(=O)N1Cc2cc(Cl)ccc2-n2c(C3CC4(C3)CN(c3ccc(F)cn3)C4)nnc2C1C` (single isomer, unassigned) [Cpd 142B] are over 1000 nM and 500 to 1000 nM.
On the same counts, the results for `COC(=O)N1Cc2cc(Cl)ccc2-n2c(nnc2C2CC3(C2)CN(c2ccc(F)cn2)C3)C1` [compound 61] are over 1000 nM and under 100 nM.
As for `O=C(N1Cc2cc(Cl)ccc2-c2c(C3CC4(C3)CN(c3cccnn3)C4)noc2C1)C(F)(F)F` [compound 105], the results for the half-inhibitory concentration (IC50) in test [1] and in test [2] (read-out: V1a IC50) were over 1000 nM and under 100 nM, respectively.
On to `CC1c2nnc(C3CC4(C3)CN(c3ncc(F)cn3)C4)n2-c2ccc(Cl)cc2CN1C(=O)OC1CC1` (single isomer, unassigned) [Cpd 192A], for which the IC50 in test [1] was over 1000 nM; in test [2] (read-out: V1a IC50) it was under 100 nM.
Take `CC1c2nnc(C3CC4(C3)CN(c3ccc(F)cn3)C4)n2-c2ccc(Cl)cc2CN1C(=O)OC1CC1` (single isomer, unassigned) [Cpd 191A]: the values for the concentration for half-maximal inhibition (IC50) in test [1] and in test [2] (read-out: V1a IC50) were over 1000 nM and under 100 nM, respectively.
For the compound `CCOC(=O)N1Cc2cc(Cl)ccc2-n2c(C3CC4(C3)CN(c3ncccn3)C4)nnc2C1C` (single isomer, unassigned) [Cpd 168A], the IC50 in test [1] was over 1000 nM; in test [2] (read-out: V1a IC50) it was under 100 nM.
On the same counts, the results for `COC(=O)N1Cc2cc(Cl)ccc2-n2c(C3CC4(C3)CN(c3cnccn3)C4)nnc2C1C` (single isomer, unassigned) [Cpd 165A] are over 1000 nM and under 100 nM.
On to `Clc1ccc2c(c1)CN(C1COC1)Cc1nnc(C3CC4(C3)CN(c3ccccn3)C4)n1-2` [compound 57, 8-chloro-5-(oxetan-3-yl)-1-(2-(pyridin-2-yl)-2-azaspiro[3.3]heptan-6-yl)-5,6-dihydro-4H-benzo[f][1,2,4]triazolo[4,3-a][1,4]diazepine], for which the IC50 in test [1] is over 1000 nM; in test [2] (read-out: V1a IC50) it was under 100 nM.
The like results for `Fc1ccc(N2CC3(CC(c4nnc5n4-c4ccc(Cl)cc4CN(C4CCC4)C5)C3)C2)nc1` [compound 42] were, in that order, over 1000 nM and under 100 nM.
The like results for `Clc1ccc2c(c1)CN(C1CCC1)Cc1nnc(C3CC4(C3)CN(c3ccccn3)C4)n1-2` [compound 41] were, in that order, over 1000 nM and under 100 nM.
On the same counts, the results for `O=C(C1CC1)N1CC2(CC(c3nnc4n3-c3ccc(Cl)cc3CN(C(=O)C3(F)CC3)C4)C2)C1` [compound 136] are over 1000 nM and under 100 nM.
Take `CCOC(=O)N1Cc2cc(Cl)ccc2-n2c(C3CC4(C3)CN(c3ncccn3)C4)nnc2C1C` (centres unmarked) [compound 168]: the IC50 in test [1] is over 1000 nM; in test [2] (read-out: V1a IC50) it was under 100 nM.
For the compound `CN1Cc2cc(Cl)ccc2-n2c(nnc2[C@H]2CC[C@H](Oc3ccccn3)CC2)C1` [balovaptan, reference compound], the IC50 in test [1] (in vitro antagonist assay, reference compounds) was over 1000 nM; in test [2] (in vitro antagonist assay, reference compounds, read-out: V1A IC50), under 100 nM.
Turning to `FCCN1Cc2cc(Cl)ccc2-n2c(nnc2C2CC3(C2)CN(c2ccccn2)C3)C1` [compound 59], the IC50 was over 1000 nM in test [1] and under 100 nM in test [2] (read-out: V1a IC50).
As to `CC1c2nnc(C3CC4(C3)CN(c3ccc(F)cn3)C4)n2-c2ccc(Cl)cc2CN1C(=O)C1(F)CC1` (single isomer, unassigned) [Cpd 174A], the figures for the half-inhibitory concentration (IC50) in test [1] and in test [2] (read-out: V1a IC50) were over 1000 nM and under 100 nM, respectively.
The like results for `COC(=O)N1Cc2cc(Cl)ccc2-n2c(C3CC4(C3)CN(c3cnccn3)C4)nnc2C1C` (centres unmarked) [compound 165] were, in that order, over 1000 nM and under 100 nM.
On the same counts, the results for `COC(=O)N1Cc2cc(Cl)ccc2-n2c(C3CC4(C3)CN(c3ncccc3F)C4)nnc2C1C` (centres unmarked) [compound 182] are over 1000 nM and under 100 nM.
